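All cell lines were grown in 96-well plates and treated with compound for 48 hours. TGI denotes the concentration required for complete inhibition of growth.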
Tests used:
Assay in all cases: NCI anticancer screen, dose series, 48 h
HCT-15 colon = tested on: HCT-15 colon
HT29 colon = tested on: HT29 colon
IGROV1 ovarian = tested on: IGROV1 ovarian
NCI-H460 lung = tested on: NCI-H460 lung
OVCAR-5 ovarian = tested on: OVCAR-5 ovarian
PC-3 prostate = tested on: PC-3 prostate
RPMI-8226 leukemia = tested on: RPMI-8226 leukemia
SNB-75 CNS = tested on: SNB-75 CNS
U251 CNS = tested on: U251 CNS
UACC-62 melanoma = tested on: UACC-62 melanoma

| Structure (SMILES) | TGI (HCT-15 colon) [µM] | TGI (HT29 colon) [µM] | TGI (IGROV1 ovarian) [µM] | TGI (NCI-H460 lung) [µM] | TGI (OVCAR-5 ovarian) [µM] | TGI (PC-3 prostate) [µM] | TGI (RPMI-8226 leukemia) [µM] | TGI (SNB-75 CNS) [µM] | TGI (U251 CNS) [µM] | TGI (UACC-62 melanoma) [µM] |
| --- | --- | --- | --- | --- | --- | --- | --- | --- | --- | --- |
| N#Cc1[nH]c(=O)n(-c2ccccc2)c1N | > 10 | > 10 | > 10 | > 10 | > 10 | > 10 | > 10 | > 10 | > 10 | > 10 |
| N#CCCC(CCC#N)(CCC#N)NO | > 100 | > 100 | > 100 | > 100 | > 100 | > 100 | > 100 | > 100 | > 100 | > 100 |
| CC(C)=CCC(O)[C@](C)(O)[C@H]1[C@H](O)C[C@@]2(C)[C@@H]3CCc4cc(O)c(OC5OC(CO)C(O)C(O)C5O)cc4C3(C)C(=O)C[C@]12C (some centres not stated) | > 100 | > 100 | > 100 | > 100 | > 100 | > 100 | – | > 100 | > 100 | > 100 |
| C[C@@H](c1ccccc1)n1c(N)c(C#N)c2ccc([N+](=O)[O-])cc2c1=O | 28.2 | 28.1 | – | 36 | – | > 100 | – | 46.2 | 59.1 | 30.4 |
| O=[N+]([O-])c1ccc(S(=O)(=O)n2c3ccc(Br)cc3c3nc4ccccc4nc32)cc1 | > 100 | > 100 | > 100 | > 100 | > 100 | > 100 | > 100 | > 100 | > 100 | > 100 |
| COC(=O)C1=CS/C(=C2\S[C@@H]3[C@H](S2)[C@H]2C=C[C@@H]3C2)S1 | > 100 | 92.6 | > 100 | > 100 | – | > 100 | > 100 | > 100 | > 100 | > 100 |
| Cc1ccc([N+](=O)[O-])c2c(NCCC[N+](C)(C)[O-])c3ccccc3nc12 | 33 | 5.26 | > 23.9 | 5.14 | 10.2 | 4.41 | – | 2.49 | 7.32 | 3.4 |
| Cn1c([C@H](C#N)c2ncccc2[N+](=O)[O-])nc2ccccc21 | > 100 | > 100 | – | > 100 | > 100 | > 100 | > 100 | 67.1 | > 100 | > 100 |
| c1ccc(CNc2nncc3[nH]cnc23)cc1 | > 100 | > 100 | > 100 | – | > 100 | > 100 | > 100 | > 100 | > 100 | > 100 |

From PubChem BioAssay (NCI)
